Conditions: for molar entropy: 101.33 kPa; for vapor or sublimation pressure: Knudsen effusion

C1C2CC3CC1CC(C14CC5CC(CC(C5)C1)C4)(C2)C3 [1,1'-biadamantane]
Conditions	molar entropy [J/K/mol]	vapor or sublimation pressure [kPa]
5 K, Crystal 3, Small (less than 1 g) adiabatic calorimetry	0.123	–
10 K, Crystal 3, Small (less than 1 g) adiabatic calorimetry	1.008	–
20 K, Crystal 3, Small (less than 1 g) adiabatic calorimetry	6.713	–
30 K, Crystal 3, Small (less than 1 g) adiabatic calorimetry	16.03	–
40 K, Crystal 3, Small (less than 1 g) adiabatic calorimetry	26.5	–
50 K, Crystal 3, Small (less than 1 g) adiabatic calorimetry	37.01	–
60 K, Crystal 3, Small (less than 1 g) adiabatic calorimetry	47.28	–
70 K, Crystal 3, Small (less than 1 g) adiabatic calorimetry	57.32	–
80 K, Crystal 3, Small (less than 1 g) adiabatic calorimetry	67.2	–
90 K, Crystal 3, Small (less than 1 g) adiabatic calorimetry	76.98	–
100 K, Crystal 3, Small (less than 1 g) adiabatic calorimetry	86.7	–
110 K, Crystal 3, Small (less than 1 g) adiabatic calorimetry	96.4	–
120 K, Crystal 3, Small (less than 1 g) adiabatic calorimetry	106.1	–
130 K, Crystal 3, Small (less than 1 g) adiabatic calorimetry	115.8	–
140 K, Crystal 3, Small (less than 1 g) adiabatic calorimetry	125.5	–
150 K, Crystal 3, Small (less than 1 g) adiabatic calorimetry	135.2	–
160 K, Crystal 3, Small (less than 1 g) adiabatic calorimetry	145.1	–
170 K, Crystal 3, Small (less than 1 g) adiabatic calorimetry	155	–
180 K, Crystal 3, Small (less than 1 g) adiabatic calorimetry	164.9	–
190 K, Crystal 3, Small (less than 1 g) adiabatic calorimetry	174.9	–
200 K, Crystal 3, Small (less than 1 g) adiabatic calorimetry	184.9	–
210 K, Crystal 3, Small (less than 1 g) adiabatic calorimetry	195.1	–
220 K, Crystal 3, Small (less than 1 g) adiabatic calorimetry	205.4	–
230 K, Crystal 3, Small (less than 1 g) adiabatic calorimetry	215.8	–
240 K, Crystal 3, Small (less than 1 g) adiabatic calorimetry	226.3	–
250 K, Crystal 3, Small (less than 1 g) adiabatic calorimetry	237	–
260 K, Crystal 3, Small (less than 1 g) adiabatic calorimetry	247.6	–
270 K, Crystal 3, Small (less than 1 g) adiabatic calorimetry	258.5	–
273.15 K, Crystal 3, Small (less than 1 g) adiabatic calorimetry	262.1	–
280 K, Crystal 3, Small (less than 1 g) adiabatic calorimetry	269.5	–
290 K, Crystal 3, Small (less than 1 g) adiabatic calorimetry	280.6	–
298.15 K, Crystal 3, Small (less than 1 g) adiabatic calorimetry	289.9	–
300 K, Crystal 3, Small (less than 1 g) adiabatic calorimetry	291.9	–
310 K, Crystal 3, Small (less than 1 g) adiabatic calorimetry	303.2	–
320 K, Crystal 3, Small (less than 1 g) adiabatic calorimetry	314.6	–
330 K, Crystal 3, Small (less than 1 g) adiabatic calorimetry	326.1	–
336.3 K, Crystal 2, Small (less than 1 g) adiabatic calorimetry	336.8	–
336.3 K, Crystal 3, Small (less than 1 g) adiabatic calorimetry	333.4	–
340 K, Crystal 2, Small (less than 1 g) adiabatic calorimetry	340	–
350 K, Crystal 2, Small (less than 1 g) adiabatic calorimetry	352.4	–
360 K, Crystal 2, Small (less than 1 g) adiabatic calorimetry	362.8	–
370 K, Crystal 2, Small (less than 1 g) adiabatic calorimetry	374.3	–
380 K, Crystal 2, Large sample (1 g) DSC	385.8	–
390 K, Crystal 2, Large sample (1 g) DSC	397.3	–
392.77 K, Crystal 2	–	0.0005447
398 K, Crystal 2	–	0.0008576
400 K, Crystal 2, Large sample (1 g) DSC	408.8	–
402.91 K, Crystal 2	–	0.001308
407.9 K, Crystal 2	–	0.001881
410 K, Crystal 2, Large sample (1 g) DSC	420.4	–
412.88 K, Crystal 2	–	0.002772
417.8 K, Crystal 2, Large sample (1 g) DSC	429.5	–
420 K, Crystal 2, Large sample (1 g) DSC	432.1	–
422.86 K, Crystal 2	–	0.006026
427.75 K, Crystal 2	–	0.00828
430 K, Crystal 2, Large sample (1 g) DSC	444	–
432.81 K, Crystal 2	–	0.01195
437.82 K, Crystal 2	–	0.01674
440 K, Crystal 2, Large sample (1 g) DSC	456	–
442.66 K, Crystal 2	–	0.02466
450 K, Crystal 2, Large sample (1 g) DSC	467	–
460 K, Crystal 2, Large sample (1 g) DSC	479	–
470 K, Crystal 2, Large sample (1 g) DSC	491	–
480 K, Crystal 2, Large sample (1 g) DSC	503	–
490 K, Crystal 2, Large sample (1 g) DSC	516	–
500 K, Crystal 2, Large sample (1 g) DSC	528	–
509.6 K, Crystal 1, Large sample (1 g) DSC	542	–
509.6 K, Crystal 2, Large sample (1 g) DSC	540	–
510 K, Crystal 1, Large sample (1 g) DSC	543	–
520 K, Crystal 1, Large sample (1 g) DSC	555	–
530 K, Crystal 1, Large sample (1 g) DSC	568	–
535 K, Crystal 1, Large sample (1 g) DSC	574	–
540 K, Crystal 1, Large sample (1 g) DSC	580	–
545 K, Crystal 1, Large sample (1 g) DSC	586	–
550 K, Crystal 1, Large sample (1 g) DSC	593	–
555 K, Crystal 1, Large sample (1 g) DSC	599	–
560 K, Crystal 1, Large sample (1 g) DSC	605	–

Conditions	Triple point temperature [K]
Crystal 1, DTA	561
Crystal 2, DTA	509.6
Crystal 3	336.3
